Laboratory results taken from patent publication US9693987B2, “Methods for treating cancers using oral formulations of cytidine analogs” (CELGENE CORPORATION, priority 2011, dated 2017).

Assays:
[1] = tested on: DNA methylation (LINE-1 and gene-specific); experiment: DNA methylation analysis (LINE-1 or EpiTech Methyl qPCR), MDA-MB-231 cells in vitro; format: cell-based
Procedure: (§1) The effects of AZA dose and schedule (short-term vs. extended) on pharmacodynamic markers such as DNMT1 depletion, DNA methylation, and DNA damage were evaluated in MDA-MB-231 breast cancer cells in vitro and in vivo. For in vitro experiments, MDA-MB-231 cells were treated daily with 0.1 or 0.3 μM AZA for up to 12 days, and harvested at various times during treatment, as well as up to 12 days following treatment. For in vivo studies, MDA-MB-231 tumor-bearing mice were dosed (ip) with 1 or 3 mg/kg AZA daily for 3, 7, 14, 21, or 28 days and tumors were harvested during and at several time points after the dosing period. DNA and cell lysates were prepared (from cell pellets or xenograft tumors) for DNA methylation analysis (LINE-1 or EpiTech Methyl qPCR assay) and DNMT1/γH2AX western blotting, respectively.

[2] = tested on: γH2AX; experiment: γH2AX western blotting (DNA damage), MDA-MB-231 xenograft tumors; format: in vivo; settings: MDA-MB-231 tumor-bearing mice
Procedure: as §1

[3] = tested on: DNA methylation, hypermethylated loci (beta>0.7); experiment: Infinium Methylation27 Array, PBMC DNA of patients; format: in vivo, human; settings: patients dosed with 200 mg oral AZA alone (Arm C) or with CBDCA (Arm A) or ABX (Arm B); Days 1, 8, 15 of 21-day cycle
Procedure: DNA methylation is employed as a biomarker to monitor responses in patients treated with azacitidine in the clinical studies described herein. Analysis is performed with an Infinium Assay (commercially available from Illumina, Inc., San Diego, Calif.). The Infinium Assay combined with BeadChips allows large-scale interrogation of variations in the human genome. For example, the Infinium HumanMethylation27 BeadChip enables interrogation of 27,578 CpG loci, covering over 14,000 genes. […]
The assay for methylation is used to detect methylation status at individual CpG loci by typing bisulfite-converted DNA. […] Blood samples were collected and DNA methylation was analyzed in parallel. In other embodiments, bone marrow samples are collected and DNA methylation analyzed in parallel.
In one embodiment, PBMC DNA was used for assessing changes in DNA methylation, using assays such as LINE-1 methylation, %5mdC mass spec, Infinium® Methylation27 Array, and Infinium® Methylation450 Array. In one study, DNA methylation (LINE-1) in PBMC DNAs from patients in clinical studies described in Example 1, dosed with 200 mg oral AZA alone or in combination with CDBCA or ABX, was measured on Days 1, 8, and 15 of 21-day cycle. […]

[4] = tested on: DNA methylation (LINE-1 and gene-specific); experiment: DNA methylation analysis (LINE-1 or EpiTech Methyl qPCR), MDA-MB-231 xenograft tumors; format: in vivo; settings: MDA-MB-231 tumors in mice, 1 or 3 mg/kg AZA ip daily; further reduction with additional days of dosing
Procedure: as §1

[5] = tested on: DNMT1; experiment: DNMT1 western blotting, MDA-MB-231 cells in vitro; format: cell-based
Procedure: as §1

[6] = tested on: LINE-1 methylation; experiment: DNA methylation (LINE-1) in PBMC DNAs from patients; format: in vivo, human; settings: patients of Example 1, Arm C, 200 mg oral AZA; Days 1, 8 and 15 of 21-day cycle
Procedure: (§2) In one embodiment, PBMC DNA was used for assessing changes in DNA methylation, using assays such as LINE-1 methylation, %5mdC mass spec, Infinium® Methylation27 Array, and Infinium® Methylation450 Array. In one study, DNA methylation (LINE-1) in PBMC DNAs from patients in clinical studies described in Example 1, dosed with 200 mg oral AZA alone or in combination with CDBCA or ABX, was measured on Days 1, 8, and 15 of 21-day cycle. […] In one study, %5mdC in PBMC DNAs from patients in clinical studies described in Example 1, dosed with 200 mg oral AZA alone or in combination with CDBCA or ABX, was measured on Days 1, 8, and 15 of 21-day cycle. In one study, methylation levels were measured on Days 1, 8, and 15 of 21-day cycle using Infinium® Methylation27 Array (patients dosed with 200 mg oral AZA alone or in combination with CDBCA or ABX) and density profiles of average methylation levels were analyzed. […] In another study, methylation levels were measured using Infinium® Methylation450 Array (patients dosed with 300 mg oral AZA alone or in combination with CDBCA or ABX) and density profiles of average methylation levels were analyzed, as well as % change of hypermethylated loci (beta>0.7) upon treatment.

[7] = tested on: DNA methylation in PBMCs; experiment: DNA hypomethylation in PBMCs of patients (summary); format: in vivo, human
Procedure: as §2

[8] = tested on: DNMT1; experiment: DNMT1 western blotting, MDA-MB-231 xenograft tumors; format: in vivo, mice
Procedure: as §1

[9] = tested on: higher-risk MDS; settings: Phase III study, administered subcutaneously, subjects with higher-risk MDS; cited from earlier work
[10] = PK exposure of AZA in patients; format: in vivo; settings: human, plasma; oral AZA, patients of the clinical study; read-out: AUCinf of patients in whom decreases in DNA methylation were observed
Procedure: For oral azacitidine, CBDCA, and ABX (administered alone and in combination), the following plasma PK parameters are assessed: (1) maximum observed concentration in plasma (Cmax); (2) area under the concentration-time curve (AUC); (3) time to maximum concentration (tmax); (4) terminal half-life (t1/2); (5) apparent total body clearance (CL/F); and (6) apparent volume of distribution (Vz/F). To evaluate the PD effects of oral azacitidine in blood, plasma, and tumor tissue, the following endpoints are collected: (1) change from baseline (Cycle 1 Day 1 pre-dose) in DNA methylation (global and gene-specific assays) in whole blood and tumor tissue (as available in Part 1); (2) reduction from baseline (Cycle 1 Day 1 predose) in DNMT1 protein levels in tumor tissue (as available in Part 1).

[11] = tested on: Nasopharyngeal cancer; experiment: Clinical study Part 1, oral azacitidine alone or with CBDCA or ABX, tumor response; format: in vivo, human; settings: Part 1 Arm C
Source text: The study was an open-label, 3-arm, multi-center, dose-escalation study of oral azacitidine in combination with either CBDCA (Arm A), ABX (Arm B), or as a single agent (Arm C) in subjects with relapsed or refractory solid tumors (Part 1). Subjects were assigned to each study Arm at the discretion of the investigator. A minimum of 6 subjects were assigned to each study Arm when a dose level (DL) became open for enrollment. If one (1) or zero (0) out of six (6) subjects in a DL experienced dose limiting toxicity (DLT), the dose of oral azacitidine was escalated in the successive DL. A limited number of oral azacitidine DLs were explored to arrive at a recommended Part 2 dose (RP2D) of oral azacitidine for each study Arm. The RP2D may be the MTD, MAD, or a lower dose depending on the tolerability, PK, and PD observed. Part 1 was followed by expansion cohorts at the RP2D in specific tumor types (Part 2). Approximately 60 subjects were enrolled in Part 1, and approximately 100 subjects were enrolled in Part 2. Safety, efficacy, pharmacokinetics, and pharmacodynamics data were evaluated.
Subjects are evaluated for tumor response after Cycle 2 and every other Cycle thereafter. […]
In one embodiment, in Part 1, Arm C of the study, 5-azacytidine was dosed from Day 1 to Day 21, in a 21-day cycle (continuous). Safety and PD were analyzed. […]

[12] = tested on: Ninety-two cancer cell lines; experiment: In vitro modeling of clinical dosing schema, AZA with CBDCA or ABX, cancer cell line panel; format: cell-based; settings: other experiments; some cell lines
Procedure: DNA hypomethylation (e.g., LINE-1, p16) was measured 72 hours after AZA treatment alone or in combination with CBDCA or ABX. p16 (mRNA) re-expression was determined 72 hours after AZA treatment alone or in combination with CBDCA or ABX. Ninety-two cancer cell lines were tested in order to identify specific tumor types that become sensitized to CBDCA or ABX after treatment with AZA (bladder cancer n=8; head and neck cancer n=8, breast cancer n=21; lung cancer n=35; pancreatic cancer n=7; ovarian cancer n=7; and melanoma n=6).

SMILES | Time for DNA methylation to return to basal levels upon AZA removal ([1]; MDA-MB-231 cells in vitro) | DNA methylation (LINE-1 and gene-specific) ([1]; MDA-MB-231 cells, 0.1 or 0.3 μM AZA daily, further reduction with additional days of dosing) | Days of dosing until DNA damage was observed in tumors ([2]; 1 mg/kg AZA ip daily) | Days of dosing until DNA damage was observed in tumors ([2]; 3 mg/kg AZA ip daily) | DNA methylation in PBMCs upon treatment (hypermethylated loci, beta>0.7) [3] | DNA methylation (LINE-1 and gene-specific) [4] | Time for DNMT1 protein levels to return to basal levels after AZA treatment was halted ([5]; MDA-MB-231 cells in vitro) | DNMT1 protein level ([5]; MDA-MB-231 cells treated daily with 0.1 or 0.3 μM AZA for up to 12 days) | DNA methylation (LINE-1) in PBMC DNAs [6] | Patients with DNA hypomethylation in PBMCs / patients analyzed ([7]; 200 mg oral AZA alone (Arm C) or with ABX (Arm B) or CBDCA (Arm A)) | Patients with DNA hypomethylation in PBMCs / patients analyzed ([7]; 300 mg oral AZA alone (Arm C) or with CBDCA (Arm A)) | Time to DNMT1 protein depletion post in vivo dose ([8]; MDA-MB-231 tumor-bearing mice, 1 or 3 mg/kg AZA ip) | DNMT1 protein level ([8]; MDA-MB-231 tumor-bearing mice, 1 or 3 mg/kg AZA ip daily) | Time for DNMT1 protein levels to return to basal levels after AZA treatment was halted ([8]; MDA-MB-231 tumors in mice) | Survival and time to AML transformation or death [9] | AUC(0-inf) [10] | Time on Study ([11]; AZA dose 300 mg single agent, nasopharyngeal patient) | Tumor response ([11]; 5-azacytidine 300 mg Day 1 to Day 21, 21-day cycle, nasopharyngeal cancer) | Interaction of DAC (decitabine) priming with ABX [12] | Interaction of DAC (decitabine) priming with CBDCA [12]
Nc1ncn([C@@H]2O[C@H](CO)[C@@H](O)[C@H]2O)c(=O)n1 [AZA, 4-amino-1-β-D-ribofuranosyl-1,3,5-triazin-2(1H)-one] | ≤ 8 days | dose-dependent decrease | 21 days | 14 days | decreases in hypermethylated loci | dose-dependent decrease | 3 to 4 days | dose-dependent depletion | Decreases in LINE-1 methylation were observed for two patients | 5/6 | 3/3 | ≤ 8 h | dose-dependent depletion | 3 to 4 days | significantly prolonged survival | > 350 ng·h/mL | >3 mo | Partial responses |  | 
Nc1ncn([C@H]2C[C@H](O)[C@@H](CO)O2)c(=O)n1 [DAC, 5-aza-2′-deoxycytidine] |  |  |  |  |  |  |  |  |  |  |  |  |  |  |  |  |  |  | antagonism | additivity or synergy
